Experimental data as given in patent publication EP0191399A2, “Benz[a]anthraquinone compounds, a microbial process for their preparation and their use as medicaments” (priority 1985, dated 1986).
Values after ≈ are worked out from the molar mass of the structure shown. Where two headings read alike, the source gives them in different places.

How the values were obtained:
[1] = system: Adriamycin-resistant P388 leukemia cells (P388/ADR); assay: Growth inhibition of cultured Adriamycin-resistant (multi-drug resistant) P388 leukemia cells; type: cell-based; settings: for IC50: Mus musculus, read-out: IC50 (μg/ml) P388/ADR; for Ratio (P388/ADR to P388/S): ratio of IC50 P388/ADR to IC50 P388/S
[2] = system: Adriamycin-sensitive P388 leukemia cells (P388/S); assay: Growth inhibition of cultured Adriamycin-sensitive P388 leukemia cells; type: cell-based; settings: Mus musculus, read-out: IC50 (μg/ml) P388/S
Source text: The substance MH190 of the present invention are capable of inhibiting the growth of cultured Adriamycin-sensitive P388 leukemia cells (P388/S) and Adriamycin-resistant P388 leukemia cells (P388/ADR) in very low concentrations.

[3] = Solubility in solvents (physicochemical properties, Table 5); settings: for Solubility (1) Soluble: solvents in which the substance is soluble; for Solubility (2) Sparingly soluble: solvents in which the substance is sparingly soluble
[4] = Stability (physicochemical properties, Table 5); settings: light, acid, alkali, silica gel
[5] = system: L1210 leukemia cells; assay: Anti-tumor activity against intraperitoneally transplanted L1210 leukemia in mice (life prolongation); type: in vivo, CDF1 mice; settings: for Percentage life prolongation: intraperitoneal for 10 days, survival of saline control taken as 100
Description: L1210 leukemia cells (1 x 10^5 per animal) were transplanted intraperitoneally into CDF1 mice. Immediately after the transplantation, a solution of MH190 Y2 was injected intraperitoneally for 10 days in a dose of […]. The percentage life prolongation of each of the treated mice was checked and the results are shown below, with the number of days of survival of control mice to which physiological saline had been administered being taken as 100.

[6] = Acute toxicity (LD50), single intraperitoneal injection; settings: mouse, in vivo, ip; single intraperitoneal injection into mice

Compound	IC50 ([1]; cultured P388/ADR cells) [µg/mL]	Ratio (P388/ADR to P388/S) [1]	IC50 ([2]; P388/S) [µg/mL]	Solubility (1) Soluble [3]	Solubility (2) Sparingly soluble [3]	Stability [4]	IC50 ([2]; cultured P388/S cells) [µg/mL]	IC50 ([1]; P388/ADR) [µg/mL]	Percentage life prolongation ([5]; dose 0.156 mg/Kg/dat)	Percentage life prolongation ([5]; dose 0.313 mg/Kg/dat)	Percentage life prolongation ([5]; dose 0.625 mg/Kg/dat)	Percentage life prolongation ([5]; dose 1.25 mg/Kg/dat)	Percentage life prolongation ([5]; dose 2.5 mg/Kg/dat)	Percentage life prolongation ([5]; dose 5 mg/Kg/dat)	anti-tumor activities ([5]; doses ranging from 0.313 to 5 mg/kg/day)	LD50 [6] [mg/kg]
COc1cccc2c1C(=O)c1c(O)c3c(c(O)c1C2=O)C[C@@](O)(C(=O)CO)C[C@@H]3O[C@H]1C[C@H](N)[C@H](O)[C@H](C)O1 [Adriamycin, reference compound]	0.38 (≈ 0.699 µM)	31.7	0.012 (≈ 0.0221 µM)													
CC1OC(OC2CCC(OC3(C)CC(=O)C4(O)C5=C(C=CC4(O)C3)C(=O)c3c(ccc(C4CC(O)C(OC6C=CC(=O)C(C)O6)C(C)O4)c3O)C5=O)OC2C)C=CC1=O (centres unmarked) [MH190 Y1, Saquayamycin A]	0.056 (≈ 0.0682 µM)	0.84		CHCl3, ethyl acetate, butyl acetate, methanol, acetonitrile, acetone, dimethyl sulfoxide	H2O, hexane, petroleum ether	instable against light, acid and alkali changed to MH190 Y2 on silica gel	0.067 (≈ 0.0816 µM)									
CC1OC(OC2C(O)CC(c3ccc4c(c3O)C(=O)C3=C(C4=O)C4(O)C(=O)CC(C)(O)CC4(O)C=C3)OC2C)C=CC1=O (centres unmarked) [MH190 Y1-1, Saquayamycin A1]		0.51	0.175 (≈ 0.293 µM)	CHCl3, ethyl acetate, butyl acetate, methanol, acetonitrile, acetone, dimethyl sulfoxide	H2O, hexane, petroleum ether	instable against light, acid and alkali changed to MH190 Y2 on silica gel		0.09 (≈ 0.151 µM)								
CC1OC(OC2CCC(OC3(C)CC(=O)C4(O)C5=C(C=CC4(O)C3)C(=O)c3c(ccc(C4CC6OC7CC(=O)C(C)OC7OC6C(C)O4)c3O)C5=O)OC2C)C=CC1=O (centres unmarked) [MH190 Y2, Saquayamycin B]		0.84	0.08 (≈ 0.0975 µM)	CHCl3, ethyl acetate, butyl acetate, methanol, acetonitrile, acetone, dimethyl sulfoxide	H2O, hexane, petroleum ether	instable against light, acid and alkali		0.067 (≈ 0.0816 µM)	102	127	120	127	151	175	appreciable anti-tumor activities	6.25 to 12.5
CC1OC2OC3C(C)OC(c4ccc5c(c4O)C(=O)C4=C(C5=O)C5(O)C(=O)CC(C)(O)CC5(O)C=C4)CC3OC2CC1=O (centres unmarked) [MH190 Y2-1, Saquayamycin B1]		0.57	0.13 (≈ 0.218 µM)	CHCl3, ethyl acetate, butyl acetate, methanol, acetonitrile, acetone, dimethyl sulfoxide	H2O, hexane, petroleum ether	instable against light, acid and alkali		0.074 (≈ 0.124 µM)								
CC1OC(OC2CCC(OC3(C)CC(=O)C4(O)C5=C(C=CC4(O)C3)C(=O)c3c(ccc(C4CC(O)C(OC6CCC(=O)C(C)O6)C(C)O4)c3O)C5=O)OC2C)CCC1=O (centres unmarked) [MH190 Y3, Saquayamycin C]		0.83	0.072 (≈ 0.0873 µM)	CHCl3, ethyl acetate, butyl acetate, methanol, acetonitrile, acetone, dimethyl sulfoxide	H2O, hexane, petroleum ether	instable against light, acid and alkali		0.06 (≈ 0.0727 µM)								
CC1OC(OC2C(O)CC(c3ccc4c(c3O)C(=O)C3=C(C4=O)C4(O)C(=O)CC(C)(O)CC4(O)C=C3)OC2C)CCC1=O (centres unmarked) [MH190 Y3-1, Saquayamycin C1]				CHCl3, ethyl acetate, butyl acetate, methanol, acetonitrile acetone, dimethyl sulfoxide	H2O, hexane, petroleum ether	instable against light, acid and alkali										
CC1OC(OC2CCC(OC3(C)CC(=O)C4(O)C5=C(C=CC4(O)C3)C(=O)c3c(ccc(C4CC6OC7CC(=O)C(C)OC7OC6C(C)O4)c3O)C5=O)OC2C)CCC1=O (centres unmarked) [MH190 Y4, Saquayamycin D]		0.86	0.07 (≈ 0.0851 µM)	CHCl3, ethyl acetate, butyl acetate, methanol, acetonitrile, acetone, dimethyl sulfoxide	H2O, hexane, petroleum ether	instable against light, acid and alkali		0.06 (≈ 0.0729 µM)								
